Patent publication US20100034839A1, “METHODS FOR TREATING VIRAL DISORDERS” (priority 2008, published 2010)
Entries after “also recorded” stand apart in the source; their conditions may differ.

Key:
[1] = test system: cell surface CLIP on Raji and Daudi cells; assay: Competition of synthetic peptides with cell surface CLIP (Fitc anti-human CLIP); type: cell-based; conditions: biotinylated competing peptide
Text: Based on a computational model comparing the peptide content of TNP mixture and identifying those peptides that would have the likeliest ability to compete for the peptide/antigen binding site for MHC class II (human HLA-DR, DP, and DQ), several peptide candidates were synthesized and examined for activity. The purpose of the study was to determine if synthetic peptides can compete for binding with CLIP peptides as measured with either Fitc anti-human CLIP antibody or, comparatively in the case of biotinylated peptides, with Streptavidin.
Cell Culture Conditions: The Raji and Daudi cell lines were purchased from American Type Culture Collection, were thawed, and grown in RPMI 1640 medium supplemented with standard supplements, including 10% fetal calf serum, gentamycin, penicillin, streptomycin, sodium pyruvate, HEPES buffer, 1-glutamine, and 2-ME.
Protocol: Cells were plated into a 12 well plate with 3 mls total volume containing approximately 1.5×10^6/well for Daudi cells and 3.0×10^6/well for Raji cells. Treatment groups included no treatment as control; MKN 3 and MKN 5 at 50 microMolar final concentration based on the reported molarity of the synthesized compounds.
The cells were incubated at 37° C. in an atmosphere containing 5% CO2 and approximately 92% humidity. The cells were incubated for 4 and 24 hours. At each time point, the cells from that experimental time were harvested and stained for flow cytometric analysis of cell surface expression of CLIP (MHC Class II invariant peptide, human) by using the commercially available (Becton/Dickinson/PHarmingen) anti-human CLIP Fitc. Catalogue #555981 versus Streptavidin.
Harvested cells were stained using standard staining procedure that called for a 1:100 dilution of Fitc-anti-human CLIP or isotype control versus 1:200 dilution of the commercially prepared Streptavidin. Following staining on ice for 25 minutes, cells were washed with PBS/FCS and resuspended in 100 microliters and added to staining tubes containing 400 microliters of PBS. Samples were acquired and analyzed on a Coulter Excel Flow Cytometer.
In the Histogram analyses of FIGS. 5-7 the Y axis represents cell number of the 5000 live cells versus the X axis which is a reflection of relative Fitc fluorescence versus Streptavidin-PE (eBioscience, Cat. #12-4317) that will bind with high affinity to cell-bound biotinylated peptides. The distance between the histogram from the isotype control staining versus the histogram reflecting the specific stain and is a measure of level of cell surface CLIP or the biotinylated peptide when stained with Streptavidin on a population of live Raji or Daudi cells as indicated.

[2] = test system: CLIP^+ B cells and lymphocyte subsets in spleen and lymph nodes; assay: CpG-ODN (TLR9) induced chronic hyperimmune activation in B6.129 mice with or without peptide; type: in vivo, mouse
Procedure: FIG. 14 depicts that administration of targeted peptide in combination with CpG-ODN reverses the inflammatory effects of TLR9 activation. FIG. 14a: B6.129 mice were injected with CpG-ODN, a TLR9 agonist without (black squares) or with VGV-hB (black circles). Total spleen cell recoveries (top panel) and lymph node cell recoveries (lower panel) at 24, 72, and 96 hours are reported. FIG. 14b: spleen cells from untreated B6.129 (upper left panel) mice, spleen cells from mice injected intraperitoneally with CpG-ODN for 48 hours (upper right panel), spleen cells from mice injected intraperitoneally with CpG-ODN+targeted peptide (VGV-hB) (lower left panel), or spleen cells from mice injected intraperitoneally with CpG-ODN+scrambled peptide (VGV-sP) (lower right panel), were harvested and stained using anti-mouse B220-PE Cy5 versus 15G4-FITC anti-mouse CLIP/I-Ab Cells were analyzed flow-cytometrically using two-dimensional dot plot analysis. FIGS. 14c & 14d: individual B6.129 animals were injected with CpG-ODN and one of three doses of peptide replacement, with either VGV-hB (FIG. 14c) or VGV-sB (FIG. 14d). As indicated, for each dose, four to six animals were injected with each of three doses, at 0.5, 5, and 50 μg per injection. Splenocytes were removed after 48 hours, stained using anti-mouse B220-PE versus 15G4-FITC anti-mouse CLIP/I-Ab. Cells were acquired and analyzed with flow cytometry, using two-dimensional dot plot analysis. Percentages of CLIP+ B cells were plotted using scatter plot analysis. The formula for the slope of each line is indicated in each of FIGS. 14c & 14d.
FIG. 15 depicts the effects of targeted peptides on the distribution of TLR activated lymphoid subsets of B cells, CD4+ T cells, CD8+ T cells, and on CD4+ T regulatory cells. FIG. 15a: B6.129 mice were injected with CpG-ODN without (squares) or with (circles) VGV-hB. Spleen (solid black symbols) and lymph nodes (open symbols) were harvested at 24, 72, and 96 hours, and stained using anti-mouse B220-PE versus 15G4-FITC anti-mouse CLIP/I-Ab. Data were plotted as percent CLIP+ B cells from either spleen or node. FIG. 15b: B6.129 mice were injected with CpG-ODN without (squares) or with (circles) VGV-hB. Spleen (solid black symbols) and lymph nodes (open symbols) were harvested at 24, 72, and 96 hours, and stained using anti-mouse CD8-PE. Data were plotted as percent CD8+ T cells from either spleen or node as indicated. FIG. 15c: B6.129 mice were injected with CpG-ODN without (squares) or with (circles) VGV-hB. Spleen (solid black symbols) and lymph nodes (open symbols) were harvested at 24, 72, and 96 hours, and stained using anti-mouse CD4 GK1.5-FITC. Data were plotted as percent CD4+ T cells from either spleen or node. FIG. 15d: B6.129 mice were injected with CpG-ODN without (squares) or with (circles) VGV-hB. Spleen (solid black symbols) and lymph nodes (open symbols) were harvested at 24, 72, and 96 hours, and stained using anti-mouse CD4 GK1.5-PE versus anti-mouse FoxP3-FITC. Data were plotted as percent CD4+ FoxP3+ T cells from either spleen or node.
FIG. 16 depicts that TLR activation and peptide reversal differentially affect cell death of lymphocyte subsets. FIG. 16a: B6.129 mice were injected with CpG-ODN without (solid black lines) or with VGV-hB (dashed lines). Cells were counted and viability was determined flow cytometrically. T cell viability 48 hours subsequent to CPG-ODN treatment alone is indicated by solid circles and solid black line; T cell viability, 48 hours after treatment with CpG-ODN and VGV-hB, is indicated by solid squares and dashed line. B cell viability, CpG-ODN treatment alone, is indicated by black x's on a solid black line; B cell viability after CpG-ODN and VGV-hB is indicated by solid black triangles and dashed lines. FIG. 16b: Ag-specific T cell hybridomas induce apoptosis B cells. FIG. 16c: Ag-specific T cell hybridomas induce apoptosis in resting and in CpG-ODN stimulated splenocytes, but not in antigen receptor engaged B cells. […]

[3] = VGV-hB in combination with TLR 9 stimulation, FIG. 16a

Sequence: FRIMAVLAS
- cell surface bound CLIP ([1]; 4 hours): small decreases in cell surface bound CLIP
- cell surface bound CLIP ([1]; 24 hours): significant decreases
- effect of CpG-ODN on total cell numbers, absolute numbers of B cells and CLIP^+ B cell distribution between spleen and lymph node ([2]; 24, 72, 96 hours, FIG. 15a): reduced
- percent of CpG-induced CLIP^+ B cells in spleen ([2]; CpG-ODN plus peptide intraperitoneally, 48 hours, FIG. 14b): reversed the effects of CPG alone
- CD8^+ T cells ([2]; CpG-ODN with VGV-hB): promotes expansion of CD8^+ T cells
- CD4^+FoxP3^+ Tregs in the lymph nodes ([2]; FIG. 15d, 15e, listed as VGV-hB): reversible; also recorded: decreases in Tregs
- B cell death [2, 3]: increased B cell death
- number of live CD4^+ T cells [2, 3]: moderate increase in the number of live CD4^+ T cells
- reversal of CpG-ODN activation incl. percent of CLIP^+ B cells from total spleen, peptide titration ([2]; dose titration of peptide per mouse, FIGS. 14c and 14d): reversed the effects of CpG-ODN activation
